Laboratory results reported in PubChem BioAssay (NCI).
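96-well plates; 48 h exposure; 5 concentrations. Endpoints by linear interpolation between flanking doses. Not reached: highest tested concentration assigned. GI50 is the concentration that inhibits growth by half. At the TGI there is no net growth.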

Tests used:
Assay in all cases: growth of human tumour cells (NCI), 48 h
[1] = tested on: CCRF-CEM leukemia
[2] = tested on: HCT-116 colon
[3] = tested on: HT29 colon
[4] = tested on: M14 melanoma
[5] = tested on: NCI-H460 lung
[6] = tested on: OVCAR-4 ovarian
[7] = tested on: SW-620 colon
[8] = tested on: SF-539 CNS
[9] = tested on: ACHN renal
[10] = tested on: NCI-H522 lung

O=Cc1cc([N+](=O)[O-])no1 was tested, and the TGI [1] was over 100 µM, the TGI [2] was 33.7 µM and the TGI [3] was 61.6 µM. It also gave a TGI [4] of 35.6 µM, a TGI [5] of over 100 µM and a TGI [6] of 35.8 µM. It also gave a TGI [7] of over 100 µM.
CC(C)(C)OC(=O)NCC(=O)NC1c2ccsc2/C(=N/O)[C@H]1O (stereo partly specified) gave a TGI [1] of over 100 µM, a TGI [2] of over 100 µM and a TGI [3] of over 100 µM. For the same compound, the TGI [4] was over 100 µM, the TGI [5] was over 100 µM and the TGI [6] was over 100 µM. It also gave a TGI [8] of over 100 µM and a TGI [7] of over 100 µM.
For CCOC(=O)C[C@@H]1C2(C=C[C@@]13CO3)OCC(C)(C)CO2, the TGI [1] was over 100 µM, the TGI [2] was over 100 µM and the TGI [3] was over 100 µM. For the same compound, the TGI [4] was over 100 µM, the TGI [5] was over 100 µM and the TGI [6] was 97.4 µM. The TGI [8] was over 100 µM and the TGI [7] was over 100 µM.
In the case of C#CCn1ncc2c(SC)ncnc21, the TGI [9] is reported as over 100 µM, the TGI [1] is reported as over 100 µM and the TGI [2] is reported as over 100 µM. It also gave a TGI [3] of over 100 µM, a TGI [4] of over 100 µM and a TGI [5] of over 100 µM. It also gave a TGI [10] of over 100 µM, a TGI [6] of over 100 µM and a TGI [8] of over 100 µM. It also gave a TGI [7] of over 100 µM.
Compound Nc1ccc(-c2cssc2=S)cc1 has a TGI [9] of over 100 µM, a TGI [2] of over 100 µM and a TGI [3] of over 100 µM. It also gave a TGI [4] of over 100 µM, a TGI [5] of over 100 µM and a TGI [10] of over 100 µM. It also gave a TGI [6] of over 100 µM, a TGI [8] of over 100 µM and a TGI [7] of over 100 µM.
In the case of CCCCCCNC(=O)c1cc(CCc2cc(O)ccc2O)ccc1O, the TGI [9] is reported as 7.68 µM, the TGI [1] is reported as over 100 µM and the GI50 [2] is reported as 3590 nM. The TGI [2] was 13.6 µM, the TGI [3] was 64.7 µM and the TGI [4] was 18.4 µM. For the same compound, the TGI [5] was 27.4 µM, the TGI [10] was 3.05 µM and the TGI [6] was 6.75 µM. It also gave a GI50 [8] of 2180 nM, a TGI [8] of 5.31 µM and a TGI [7] of over 75.9 µM.
With CC(=O)Nc1ccc(N=C2C(c3ccccc3)=C(SC3=C(c4ccccc4)C(=Nc4ccc(NC(C)=O)cc4)c4ccccc43)c3ccccc32)cc1 the TGI [9] was over 100 µM, the TGI [1] was over 100 µM and the TGI [2] was over 100 µM. It also gave a TGI [3] of over 100 µM, a TGI [4] of over 100 µM and a TGI [5] of over 100 µM. The TGI [10] was 97.7 µM, the TGI [6] was over 100 µM and the TGI [8] was 28.5 µM. The TGI [7] was over 100 µM.
CO/C=C(/C(=O)OC)c1ccccc1[C@@H]1CC1c1cccc(F)c1 (stereo partly specified) gave a TGI [9] of 62.7 µM, a TGI [1] of 87.7 µM and a TGI [2] of 77.3 µM. For the same compound, the TGI [3] was over 100 µM, the TGI [4] was 81.6 µM and the TGI [5] was over 100 µM. It also gave a TGI [10] of 35.3 µM, a TGI [6] of 96.7 µM and a TGI [8] of 58.1 µM.
For O=c1cc(-c2ccc(O)cc2)n(C2CC2)c2ccccc12, the TGI [9] was 5.99 µM, the TGI [1] was 72.2 µM and the TGI [2] was 13.1 µM. For the same compound, the TGI [3] was 9.25 µM, the TGI [4] was 20.7 µM and the TGI [5] was 17.3 µM. It also gave a TGI [10] of 9.69 µM, a TGI [8] of 18.9 µM and a TGI [7] of 26.7 µM.
With O=C1CS(=O)(=O)C(c2cccc(Oc3ccccc3)c2)N1c1cccc(Cl)c1 (stereo unspecified) the TGI [9] was 59.5 µM, the TGI [1] was over 100 µM and the TGI [2] was 29.6 µM. It also gave a TGI [3] of over 100 µM, a TGI [4] of 92.2 µM and a TGI [5] of 41.3 µM. The TGI [10] was 45.2 µM, the TGI [6] was over 100 µM and the TGI [8] was 37.4 µM. The TGI [7] was over 100 µM.
For c1ccc(C2CC(c3cccc(Nc4ccncc4)c3)=NN2c2ccccc2)cc1 (stereo unspecified), the GI50 [9] was 1690 nM, the TGI [9] was 3.05 µM and the GI50 [1] was 2090 nM. For the same compound, the TGI [1] was 5.68 µM, the GI50 [2] was 1660 nM and the TGI [2] was 3.25 µM. The GI50 [3] was 1690 nM, the TGI [3] was 3.49 µM and the GI50 [4] was 1690 nM. It also gave a TGI [4] of 3.39 µM, a GI50 [5] of 1720 nM and a TGI [5] of 3.25 µM. For the same compound, the GI50 [10] was 1620 nM, the TGI [10] was 3.28 µM and the GI50 [6] was 1720 nM. For the same compound, the TGI [6] was 3.43 µM, the GI50 [8] was 1710 nM and the TGI [8] was 3.12 µM. It also gave a GI50 [7] of 1650 nM and a TGI [7] of 3.27 µM.
For N#Cc1c(NC(=S)Nc2ccc(Cl)cc2)sc2c1CCCC2, the TGI [9] was over 100 µM, the TGI [2] was over 100 µM and the TGI [3] was over 100 µM. The TGI [10] was over 100 µM, the TGI [6] was over 100 µM and the TGI [7] was over 100 µM.
Compound Cc1cc2c(cc1Cl)SC(c1ccccc1)C(=O)NS2(=O)=O (stereo unspecified) has a TGI [9] of over 100 µM, a TGI [1] of over 100 µM and a TGI [2] of 45.6 µM. For the same compound, the TGI [3] was over 100 µM, the TGI [4] was over 100 µM and the TGI [5] was 86.1 µM. It also gave a TGI [10] of 59.7 µM, a TGI [6] of over 100 µM and a TGI [8] of 73.3 µM. The TGI [7] was over 100 µM.
With CC(=O)Oc1c(C)c2c(O)c3c1C1=C(OCOC1=C(C)C3=O)/C(C)=C\C(C)(O)C(O)C(C)C(O)C1C(=O)OC(C(C)C1O)C(C)(O)/C=C/C=C(C)C(=O)N2 (stereo unspecified) the TGI [9] was over 100 µM, the TGI [1] was 61.4 µM and the TGI [2] was over 100 µM. For the same compound, the TGI [3] was over 100 µM, the TGI [4] was over 100 µM and the TGI [5] was over 100 µM. The TGI [10] was over 100 µM, the TGI [8] was 46.8 µM and the TGI [7] was over 100 µM.
Compound Cc1nc2c(n1C)C(=O)c1nc(CBr)[nH]c(=O)c1C2=O has a TGI [9] of over 100 µM, a TGI [1] of over 100 µM and a TGI [2] of over 100 µM. For the same compound, the TGI [3] was over 100 µM, the TGI [4] was over 100 µM and the TGI [5] was over 100 µM. For the same compound, the TGI [10] was over 100 µM, the TGI [8] was over 100 µM and the TGI [7] was over 100 µM.
